Data from ChEMBL document CHEMBL4406868, “Structure-based design and SAR development of novel selective polo-like kinase 1 inhibitors having the tetrahydropteridin scaffold” (Eur J Med Chem, 2019).
Values after ≈ are worked out from the molar mass of the structure shown.

Legend:
[1] = test system: Huh-7; test: cells; conditions: Homo sapiens, Huh-7, 72 h
[2] = test system: K562; test: cells; conditions: Homo sapiens, K562, 72 h
[3] = test system: HeLa; test: cells; conditions: Homo sapiens, 72 h
[4] = test system: A549; test: cells; conditions: Homo sapiens, A549, 72 h
[5] = test system: MCF7; test: cells; conditions: Homo sapiens, MCF7, 72 h
[6] = test system: NCI-H1975; test: cells; conditions: Homo sapiens, NCI-H1975, 72 h
[7] = target: Serine/threonine-protein kinase PLK2 (Homo sapiens, UniProt Q9NYY3); test: Inhibition of recombinant full length human GST-tagged PLK2 expressed in baculovirus expression system using ser/thr 16 as substrate incubated for 1 hr by Z'-LYTE assay
[8] = Solubility of compound in PBS buffer at pH 7.4 incubated for 12 hrs by UV-visible spectrophotometry; type: physicochemical

Serine/threonine-protein kinase PLK2, sequence (Q9NYY3 whole entry): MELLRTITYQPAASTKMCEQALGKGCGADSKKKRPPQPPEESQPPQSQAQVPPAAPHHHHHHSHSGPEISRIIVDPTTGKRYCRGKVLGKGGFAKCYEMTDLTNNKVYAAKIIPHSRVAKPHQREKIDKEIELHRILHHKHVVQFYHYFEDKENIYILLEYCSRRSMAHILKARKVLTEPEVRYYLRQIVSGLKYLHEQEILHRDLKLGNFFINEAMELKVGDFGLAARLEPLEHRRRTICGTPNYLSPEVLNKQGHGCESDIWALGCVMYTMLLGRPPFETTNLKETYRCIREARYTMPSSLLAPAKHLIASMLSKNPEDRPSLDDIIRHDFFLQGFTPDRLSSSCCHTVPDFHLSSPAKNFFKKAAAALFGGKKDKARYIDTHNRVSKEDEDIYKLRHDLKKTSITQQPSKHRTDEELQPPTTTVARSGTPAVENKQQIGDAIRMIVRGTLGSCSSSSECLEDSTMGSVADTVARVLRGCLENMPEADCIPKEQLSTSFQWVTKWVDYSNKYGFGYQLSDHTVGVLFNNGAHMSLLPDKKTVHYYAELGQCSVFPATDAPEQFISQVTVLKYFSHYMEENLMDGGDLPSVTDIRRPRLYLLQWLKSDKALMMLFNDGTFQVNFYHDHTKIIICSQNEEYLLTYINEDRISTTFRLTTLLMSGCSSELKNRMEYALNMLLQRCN

Compound: CC[C@@H]1C(=O)N(C)c2cnc(Nc3cc(F)c(C(=O)NC4CCN(C)CC4)cc3OCCO)nc2N1C(C)C
- GI50 [1]: 885 nM
- GI50 [2]: 540 nM
- GI50 [3]: 274 nM
- GI50 [4]: 852 nM
- GI50 [5]: 833 nM
- GI50 [6]: 2120 nM

Compound: CC[C@@H]1C(=O)N(C)c2cnc(Nc3ccc(C(N)=O)cc3OCCO)nc2N1C1CCCC1
- GI50 [1]: 129 nM
- GI50 [2]: 132 nM
- GI50 [3]: 118 nM
- IC50 [7]: 290 nM
- GI50 [4]: 447 nM
- GI50 [5]: 252 nM
- GI50 [6]: 1200 nM

Compound: CCNC(=O)c1cc(OCCO)c(Nc2ncc3c(n2)N(C2CCCC2)[C@H](CC)C(=O)N3C)cc1F
- GI50 [1]: 141 nM
- GI50 [2]: 86.3 nM
- GI50 [3]: 39.4 nM
- IC50 [7]: 107 nM
- GI50 [4]: 98.3 nM
- GI50 [5]: 130 nM
- GI50 [6]: 253 nM

Compound: CC[C@@H]1C(=O)N(C)c2cnc(Nc3ccc(C(=O)NC4CCCC4)cc3OCCO)nc2N1C1CCCC1
- GI50 [1]: 110 nM
- GI50 [2]: 91.3 nM
- GI50 [3]: 50.7 nM
- IC50 [7]: 152 nM
- GI50 [4]: 71.2 nM
- GI50 [5]: 98.9 nM
- GI50 [6]: 158 nM

Compound: CC[C@@H]1C(=O)N(C)c2cnc(Nc3ccc(C(C)=O)cc3OCCO)nc2N1C1CCCC1
- GI50 [1]: 56 nM
- GI50 [2]: 38.1 nM
- GI50 [3]: 42 nM
- IC50 [7]: 132 nM
- GI50 [4]: 87.6 nM
- GI50 [5]: 107 nM
- GI50 [6]: 220 nM

Compound: CC[C@@H]1C(=O)N(C)c2cnc(Nc3cc(F)c(C(=O)NC4CCN(C)CC4)cc3OCCO)nc2N1C1CCCC1
- GI50 [1]: 66.9 nM
- GI50 [2]: 24.6 nM
- solubility at 12 h [8]: 530 µg/mL (≈ 930 µM)
- GI50 [3]: 13.1 nM
- GI50 [4]: 44 nM
- GI50 [5]: 81.4 nM
- GI50 [6]: 501 nM

Compound: CC[C@@H]1C(=O)N(C)c2cnc(Nc3cc(F)c(C(=O)NC)cc3OCCO)nc2N1C1CCCC1
- GI50 [1]: 113 nM
- GI50 [2]: 120 nM
- GI50 [3]: 47.1 nM
- GI50 [4]: 171 nM
- GI50 [5]: 222 nM
- GI50 [6]: 510 nM

Compound: CC[C@@H]1C(=O)N(C)c2cnc(Nc3ccc(C(=O)NC4CCOCC4)cc3OCCO)nc2N1C(C)C
- GI50 [1]: 722 nM
- GI50 [2]: 773 nM
- GI50 [3]: 1750 nM
- GI50 [4]: 3440 nM
- GI50 [5]: 1270 nM
- GI50 [6]: 3550 nM

Compound: CC[C@@H]1C(=O)N(C)c2cnc(Nc3ccc(C(=O)NC4CCCC4)cc3OCCO)nc2N1C(C)C
- GI50 [1]: 1450 nM
- GI50 [2]: 1250 nM
- GI50 [3]: 1120 nM
- GI50 [4]: 2590 nM
- GI50 [5]: 1820 nM
- GI50 [6]: 2370 nM

Compound: CC[C@@H]1C(=O)N(C)c2cnc(Nc3cc(F)c(C(=O)NC4CCOCC4)cc3OCCO)nc2N1C(C)C
- GI50 [1]: 1110 nM
- GI50 [2]: 915 nM
- GI50 [3]: 351 nM
- IC50 [7]: 869 nM
- GI50 [4]: 1170 nM
- GI50 [5]: 931 nM
- GI50 [6]: 1920 nM

Compound: CC[C@@H]1C(=O)N(C)c2cnc(Nc3ccc(C(=O)NC(C)C)cc3OCCO)nc2N1C1CCCC1
- GI50 [1]: 65.9 nM
- GI50 [2]: 47.4 nM
- GI50 [3]: 24.7 nM
- GI50 [4]: 79.3 nM
- GI50 [5]: 162 nM
- GI50 [6]: 677 nM

Compound: CC[C@@H]1C(=O)N(C)c2cnc(Nc3ccc(C(=O)NCCN4CCN(C)CC4)cc3OCCO)nc2N1C1CCCC1
- GI50 [1]: 876 nM
- GI50 [2]: 187 nM
- GI50 [3]: 892 nM
- GI50 [4]: 540 nM
- GI50 [5]: 871 nM
- GI50 [6]: 3810 nM

Compound: CC[C@@H]1C(=O)N(C)c2cnc(Nc3ccc(C(=O)NC4CC4)cc3OCCO)nc2N1C1CCCC1
- GI50 [1]: 197 nM
- GI50 [2]: 143 nM
- GI50 [3]: 129 nM
- GI50 [4]: 322 nM
- GI50 [5]: 269 nM
- GI50 [6]: 676 nM

Compound: CCNC(=O)c1ccc(Nc2ncc3c(n2)N(C2CCCC2)[C@H](CC)C(=O)N3C)c(OCCO)c1
- GI50 [1]: 81.6 nM
- GI50 [2]: 98.9 nM
- GI50 [3]: 82.3 nM
- GI50 [4]: 197 nM
- GI50 [5]: 331 nM
- GI50 [6]: 519 nM

Compound: CC[C@@H]1C(=O)N(C)c2cnc(Nc3ccc(C(=O)NC4CCCC4)cc3O)nc2N1C1CCCC1
- GI50 [1]: 12.2 nM
- GI50 [2]: 10.7 nM
- solubility at 12 h [8]: 230 µg/mL (≈ 481 µM)
- GI50 [3]: 9.74 nM
- IC50 [7]: 7.98 nM
- GI50 [4]: 10.3 nM
- GI50 [5]: 6.25 nM
- GI50 [6]: 20.2 nM

Compound: CC[C@@H]1C(=O)N(C)c2cnc(Nc3cc(F)c(C(=O)NCCN(C)C)cc3OCCO)nc2N1C1CCCC1
- GI50 [1]: 807 nM
- GI50 [2]: 731 nM
- GI50 [3]: 435 nM
- GI50 [4]: 1720 nM
- GI50 [5]: 1550 nM
- GI50 [6]: 5130 nM

Compound: CC[C@@H]1C(=O)N(C)c2cnc(Nc3cc(F)c(C(=O)NCCN4CCN(C)CC4)cc3OCCO)nc2N1C1CCCC1
- GI50 [1]: 831 nM
- GI50 [2]: 1070 nM
- GI50 [3]: 225 nM
- IC50 [7]: 167 nM
- GI50 [4]: 1190 nM
- GI50 [5]: 908 nM
- GI50 [6]: 2470 nM

Compound: CC[C@@H]1C(=O)N(C)c2cnc(Nc3ccc(C(=O)NC4CCN(C)CC4)cc3OCCO)nc2N1C1CCCC1
- GI50 [1]: 71.3 nM
- GI50 [2]: 69.6 nM
- solubility at 12 h [8]: 1140 µg/mL (≈ 2070 µM)
- GI50 [3]: 29.2 nM
- GI50 [4]: 36 nM
- GI50 [5]: 61.5 nM
- GI50 [6]: 131 nM
